According to patent US20240139188A1, “Arylamide Compounds For Treatment And Prevention Of Fungal Infections” (priority 2022, published 2024):

Assays:
[1] = system: A. fumigatus; assay: Protein kinase inhibitor (PKI) library screen with or without BRI; settings: for growth, PKI (20 μM): PKI 20 μM alone; for growth, PKI (20 μM) + BRI (20 μM): PKI 20 μM together with BRI 20 μM; for activity at 20 µM: Aspergillus fumigatus, 48 h, read-out: growth, PKI (20 μM)
Procedure: A protein kinase inhibitors (PKI) library was also screened in combination with BRI. In total, 58 PKI were analyzed. Briefly, 100 μL of liquid MM containing 2.5×10^3 conidia/mL of the A. fumigatus wild-type strain plus 10% alamar blue was inoculated with increasing concentration of PKI (5-80 μM) in the presence (or not) of BRI (20μM) and incubated 48 hours at 37° C. without shaking. […] Plates were incubated for 48 hours at 37° C. without shaking. All experiments containing alamar blue were, after 48 hours incubation, read spectrophotometically by fluorescence and analyzed as previously described. Experiments were repeated at least three times.
To assess the mechanism of action of BRI, a collection of 58 protein kinase inhibitors (PKI, at a concentration of 20 μM; Table 4) was screened for A. fumigatus growth and corresponding metabolic activity alone or together with 20 μM BRI (Table 4).

[2] = system: Aspergillus fumigatus; assay: In vitro susceptibility (MIC), macrobroth dilution; format: cell-based; settings: A. fumigatus 10AF, drug alone

| Compound | growth, PKI (20 μM) [1] | growth, PKI (20 μM) + BRI (20 μM) [1] | activity at 20 µM [1] [%] | MIC50 ([2]; lowest concentration causing 50% decrease in growth vs untreated control) [µg/mL] | MIC100 ([2]; lowest concentration without growth) [µg/mL] |
| --- | --- | --- | --- | --- | --- |
| LY + 2584702 | ++ (++: growth ≥80% compared to no treatment) | ++ (++: growth ≥80% compared to no treatment) | – | – | – |
| CCc1cncnc1N1CCN(Cc2nc3ccc(C(F)(F)F)cc3[nH]2)CC1 [PF + 4708671] | ++ (++: growth ≥80% compared to no treatment) | ++ (++: growth ≥80% compared to no treatment) | – | – | – |
| NS(=O)(=O)c1ccc(N/N=C2\C(=O)Nc3ccc(C(=O)NCCCn4ccnc4)cc32)cc1 [GW290597X] | ++ (++: growth ≥80% compared to no treatment) | ++ (++: growth ≥80% compared to no treatment) | – | – | – |
| CCOc1cc(N2CCC(O)CC2)ccc1Nc1ncc2c(n1)N(C)c1ccccc1C(=O)N2C [XMD8 + 92] | ++ (++: growth ≥80% compared to no treatment) | ++ (++: growth ≥80% compared to no treatment) | – | – | – |
| NS(=O)(=O)c1ccc(N/N=C2\C(=O)Nc3ccc(C(=O)NCCc4c[nH]cn4)cc32)cc1 [GW300660X] | ++ (++: growth ≥80% compared to no treatment) | ++ (++: growth ≥80% compared to no treatment) | – | – | – |
| COc1ccc(-c2ccc3c(N4CCOC[C@@H]4C)nc(N4CCOC[C@@H]4C)nc3n2)cc1CO [AZD + 8055] | ++ (++: growth ≥80% compared to no treatment) | ++ (++: growth ≥80% compared to no treatment) | – | – | – |
| CNC(=O)c1cccc(-c2ccc3c(N4CCOC[C@@H]4C)nc(N4CCOC[C@@H]4C)nc3n2)c1 [vistusertib] | – | ++ (++: growth ≥80% compared to no treatment) | > 80 | – | – |
| CNC(=O)c1cc(Oc2ccc(NC(=O)Nc3ccc(Cl)c(C(F)(F)F)c3)cc2)ccn1 [Sorafenib] | – | ++ (++: growth ≥80% compared to no treatment) | > 80 | – | – |
| O=c1[nH]c(C2CCCN2)nc2c1oc1ccc(Cl)cc12 (centres unmarked) [XL413] | ++ (++: growth ≥80% compared to no treatment) | ++ (++: growth ≥80% compared to no treatment) | – | – | – |
| C[S+]([O-])c1ccc(-c2nc(-c3ccc(F)cc3)c(-c3ccncc3)[nH]2)cc1 (centres unmarked) [SB + 203580] | ++ (++: growth ≥80% compared to no treatment) | ++ (++: growth ≥80% compared to no treatment) | – | – | – |
| N#Cc1ccc2[nH]c(O)c(-c3ccc(CN4CCOCC4)cn3)c2c1 [AZD1080] | – | ++ (++: growth ≥80% compared to no treatment) | > 80 | – | – |
| O=C(Nc1ccc2[nH]nc(-c3ccncc3)c2c1)[C@@H]1CCN(CC(=O)N2CCN(c3ccc(-c4ncccn4)cc3)CC2)C1 [SCH772984] | – | ++ (++: growth ≥80% compared to no treatment) | > 80 | – | – |
| COc1cc(F)c(F)c(Nc2ccc(I)cc2F)c1NS(=O)(=O)C1(C[C@H](O)CO)CC1 [refametinib] | – | ++ (++: growth ≥80% compared to no treatment) | > 80 | – | – |
| Cc1ccc(-c2csc3ncnc(SCCC(=O)O)c23)cc1 [TTP 22] | ++ (++: growth ≥80% compared to no treatment) | ++ (++: growth ≥80% compared to no treatment) | – | – | – |
| PF + 670462 | ++ (++: growth ≥80% compared to no treatment) | ++ (++: growth ≥80% compared to no treatment) | – | – | – |
| Fc1ccc(-c2nn3ccccc3c2-c2ccncc2)cc1 [GW434756X] | ++ (++: growth ≥80% compared to no treatment) | ++ (++: growth ≥80% compared to no treatment) | – | – | – |
| CC(C)(C)Cn1c(N)nc2ccc(-c3[nH]c(C(C)(C)C)nc3-c3ccc(F)cc3)nc21 [ralimetinib] | – | ++ (++: growth ≥80% compared to no treatment) | > 80 | – | – |
| Nc1nc(=O)[nH]cc1F [Flucytosine (FLCY)] | – | – | – | >64 | >64 |
| O=c1ncn2nc(Sc3ccc(F)cc3F)ccc2c1-c1c(Cl)cccc1Cl [VX + 745] | ++ (++: growth ≥80% compared to no treatment) | ++ (++: growth ≥80% compared to no treatment) | – | – | – |
| COc1ccc2[nH]c3c4[nH]c5ccc(OC)cc5c4c4c(c3c2c1)C(=O)NC4=O [GW296115X] | ++ (++: growth ≥80% compared to no treatment) | ++ (++: growth ≥80% compared to no treatment) | – | – | – |
| COc1cc2c(Nc3cccc(NC(=O)c4ccccc4)c3)ncnc2cc1OCCCN1CCOCC1 [GSK223810A] | – | ++ (++: growth ≥80% compared to no treatment) | > 80 | – | – |
| CC(C)COC(=O)c1ccc2c(c1)/C(=C/Nc1ccc(S(N)(=O)=O)cc1)C(=O)N2 [GW416981X] | ++ (++: growth ≥80% compared to no treatment) | ++ (++: growth ≥80% compared to no treatment) | – | – | – |
